In PubChem BioAssay (NCI):
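Interpolation was linear, between the two tested concentrations surrounding the appropriate level; five concentrations were tested over 48 hours in 96-well plates. TGI: concentration producing complete growth inhibition.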

Columns and labels:
Assay in all cases: NCI anticancer screen, dose series, 48 h
[1] = test system: SNB-75 CNS
[2] = test system: COLO 205 colon
[3] = test system: ACHN renal
[4] = test system: A549 NSCLC
[5] = test system: SF-268 CNS
[6] = test system: HL-60(TB) leukemia
[7] = test system: OVCAR-8 ovarian
[8] = test system: LOX IMVI melanoma
[9] = test system: KM20L2 colon
[10] = test system: OVCAR-3 ovarian
[11] = test system: RPMI-8226 leukemia
[12] = test system: MDA-MB-435
[13] = test system: MALME-3M melanoma
[14] = test system: U251 CNS
[15] = test system: K-562 leukemia
[16] = test system: SR leukemia
[17] = test system: SK-MEL-2 melanoma
[18] = test system: IGROV1 ovarian
[19] = test system: MDA-N
[20] = test system: SK-MEL-5 melanoma

Measured: TGI

C/C(=N\N)C(CN(C)C)C(c1ccccc1)c1c(O)c2ccccc2oc1=O (stereo not given)
> 100 µM: all assays above
